For one assay, the system named is type B strain. The arrangement: species or system ddY mice. Conditions: mouse, in vivo.
For the next assay, the system named is type A strain (H1N1). The arrangement: species or system ddY mice. Conditions: mouse, in vivo.

On to `CCCCCCCCCCCCO` [lauryl alcohol], for which, in the assay with type B strain, the “HI antibody titer for type B with lauryl alcohol as adjuvant in combination” value is “remarkable effect was exerted on type B”. Moreover, the “HI antibody titer for type A with lauryl alcohol as adjuvant in combination” value in the assay with type A strain (H1N1) is listed as “HI antibody titer for type A increased”.

Source of the values: US9028463B2 (priority 2008, dated 2015).
